The text below walks through data of patent publication US9702824B2, “pH sensors” (PROMEGA CORPORATION, priority 2012, dated 2017).

As usually defined, the pKa is the pH at which an ionisable group is half protonated.

Like-named read-outs stand apart in the source and are kept apart here.

Series [1] has as its system U2-OS cells stably expressing HaloTag-NLS.
For series [2], the system named is HaloTag-EDG1 fusion protein in U2-OS cells. Nature of the series: Blocking internalization by DYNASORE, detected with pH sensor. Type of series: cell-based. The conditions noted are these: 80 uM, 1 uM S1P for 60 minutes, detected with 1 uM PBI-4479. The procedure:
In addition to dynamin, DYNASORE, a reversible, non-competitive inhibitor of dynamin, can also be used to block internalization/endocytosis with the blocking detected and monitored using the pH sensor of the present invention. […] After the overnight incubation, the cells were simultaneously labeled for 30 minutes with 1 uM HaloTag pH sensor (PBI-4479) and 80 uM Dynasore (Sigma). Control cells were labeled with the 1 uM HaloTag pH sensor, but were not treated with Dynasore. The cells were then stimulated with 1 uM S1P for 60 minutes and imaged as previously described.

For series [3] the test system is unchanged. Nature of the series: Restoration of internalization by DYNASORE washout. Type of series: cell-based. The conditions noted are these: 80 uM removed by washing, then 1 uM S1P for 60 minutes. The procedure:
In such experiments, blocked internalization of HaloTag-EDG1 was restored. […] After the overnight incubation, the cells were simultaneously labeled with a HaloTag pH sensor (PBI-4479) and 80 uM DYNASORE (Sigma). Control cells were labeled with the HaloTag pH sensor, but were not treated with DYNASORE. The cells were then stimulated with 1 uM S1P and imaged (T=0 in FIG. 17). At this point, DYNASORE prevents the dynamin-dependent internalization/endocytosis of HaloTag-EDG1. DYNASORE was then removed by washing three times for 5 minutes with McCoy's 5A+10% FBS, and the media replaced with complete media containing 1 uM S1P. The cells were incubated for 60 minutes and imaged as previously described. Internalization of HaloTag-EDG1 was restored as detected and monitored by the pH sensor (SEE FIG. 19).

Series [4] is described as follows: Ex/Em printed with the synthesis procedures. Type of series: physicochemical.
The nature of series [5]: pH dependence of fluorescence emission. Type of series: physicochemical. The procedure: (§1) Experiments were conducted during development of embodiments of the present invention to determine the fluorescence characteristics of exemplary pH sensor agents PBI-4453 and PBI-4479 (SEE FIG. 1). Fluorescence excitation and emission intensities were measured at a range of wavelengths (SEE FIG. 2). […] Fluorescence detection was performed at a range of pH values (SEE FIG. 3).

A further series has as its system U2OS cells. Kind of series: Toxicity, CELLTITER-GLO Luminescent Cell Viability Assay (Example 3). Type of series: cell-based. The conditions noted are these: 0 nM to 20 uM, 24 hour. The procedure:
The toxicity of dyes PBI-4479 and PBI-4453 was tested in U2OS cells. The cells were plated at 20,000 cells/well in McCoy's 5A media+10% FBS into wells of a 96-well plate. The compounds were then serially diluted 2-fold in McCoy's 5A+10% FBS to a 10× working solution. 10 ul of the working solution was added to the cells to a final concentration of 0 nM to 20 uM. The treated cells were then incubated overnight at 37° C., 5% CO2. Toxicity was tested using Promega's CELLTITER-GLO Luminescent Cell Viability Assay according to the manufacturer's protocol. No toxicity was seen across varying concentrations of the compounds over the 24 hour period (SEE FIG. 9).
In general terms: Cellular ATP, detected with luciferase, serves as a proxy for viable cell number.

Series [6] can be described thus: Fluorescence excitation and emission spectra of pH sensor agents. It counts as physicochemical. The method, then:
as §1

In series [7] the test system is U2-OS cells stably expressing HaloTag-NLS. Kind of series: pH sensor permeability, pulse and chase with HaloTag Oregon Green (Example 12). The conditions noted are these: 2 uM pulse for 10 minutes.
In series [8] the target is T1, U2-OS HaloTag-EDG1 cells (Homo sapiens, UniProt P21453).
T1 construct: host or cells: U2-OS HaloTag-EDG1 cells
Nature of the series: Detection of internalization using an impermeable pH sensor (Example 13). Type of series: cell-based. The conditions noted are these: 500 nM sensor. The procedure:
The next day, the media was replaced with McCoy's 5A+0.5% cFBS and incubated overnight at 37° C./5% CO2. […] 1 uM S1P (Sphingosine-1-Phosphate) or carrier (DMSO) was then added to the cells, and images were acquired sequentially on Olympus FV500 at 37° C./5% CO2.

The subject of the next series is wild-type U2-OS cells. Kind of series: Toxicity of HaloTag pH sensors, CELLTITER Glo Cell Viability Assay (Example 9). The conditions noted are these: 0-10 uM, overnight. Type of series: cell-based. The method, then: U2-OS cells were plated at 10,000 cells/well into wells of 96-well plates and incubated overnight. The next day, 0-10 uM (serially diluted 1:2) PBI-4959, PBI-5004 or PBI-4479 was added to the cells and again incubated overnight. After incubation, the media containing the HaloTag® pH sensors was removed, and 100 ul of fresh media (McCoy's 5A+10% FBS) was added. Cell viability was determined using the CELLTITER Glo Cell Viability Assay according to the manufacturer's protocol (Promega Corporation). Luminescence was read on a GloMAX®-Multi luminometer.

In series [9] the target is T1, U2-OS HaloTag-EDG1 cells. Kind of series: Detection of internalization using a permeable pH sensor (Example 13). It counts as cell-based. The conditions noted are these: 500 nM sensor added after stimulation with or without 1 uM S1P. The method, then:
To evaluate internalization using a permeable pH Sensor, U2-OS HaloTag®-EDG1 cells (Promega Corporation) were exposed to PBI-5004 and internalization of HaloTag®-EDG1 assessed. […] The next day, the media was replaced with McCoy's 5A+0.5% cFBS and incubated overnight at 37° C./5% CO2. After incubation, 1 uM S1P (Sphingosine-1-Phosphate) was added, and the cells incubated for 30 minutes at 37° C./5% CO2.

T1 sequence (P21453 with tags, fused parts or gaps): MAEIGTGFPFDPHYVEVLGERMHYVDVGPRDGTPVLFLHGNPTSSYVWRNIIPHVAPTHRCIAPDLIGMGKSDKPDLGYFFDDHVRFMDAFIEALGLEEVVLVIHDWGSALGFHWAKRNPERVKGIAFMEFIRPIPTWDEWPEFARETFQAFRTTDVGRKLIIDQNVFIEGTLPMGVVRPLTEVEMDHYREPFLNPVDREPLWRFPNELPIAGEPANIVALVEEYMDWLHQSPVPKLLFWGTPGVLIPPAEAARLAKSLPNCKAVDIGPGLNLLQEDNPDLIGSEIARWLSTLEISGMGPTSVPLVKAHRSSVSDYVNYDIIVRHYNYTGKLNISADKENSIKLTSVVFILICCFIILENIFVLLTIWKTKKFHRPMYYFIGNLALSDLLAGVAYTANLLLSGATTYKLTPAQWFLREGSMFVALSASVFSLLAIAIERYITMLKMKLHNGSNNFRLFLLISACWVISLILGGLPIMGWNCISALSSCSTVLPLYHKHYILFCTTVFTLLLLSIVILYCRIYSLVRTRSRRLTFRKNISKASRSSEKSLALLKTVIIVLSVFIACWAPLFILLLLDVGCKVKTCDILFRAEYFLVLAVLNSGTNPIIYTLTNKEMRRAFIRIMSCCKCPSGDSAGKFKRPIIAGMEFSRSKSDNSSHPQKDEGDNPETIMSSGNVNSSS

Turning to “4-((1-(4-((2-(2-((6-chlorohexyl)oxy)ethoxy)ethyl)carbamoyl)phenyl)-3-oxo-6,9,12,15-tetraoxa-2-azaheptadecan-17-yl)) 3′,6′-bis(4-(4-sulfobutyl)piperazin-1-yl) rhodamine(5′,6′)carboxamide [PBI-4995]”, in [1], the cell permeability result is reported as “non-permeability”.

In the case of `O=C(N/N=C/c1ccc(O)c(O)c1)c1cc2ccccc2cc1O` [DYNASORE], in [2], the “effect on HaloTag-EDG1 internalization” value is “prevented dynamin-dependent internalization/endocytosis”. In [3], the “HaloTag-EDG1 internalization after washout” value was “restored”.

In series [4], `CN1CCN(c2ccc3c(c2)Oc2c4c5c(cc2=C3c2cc(C(=O)O)ccc2C(=O)[O-])CCC[N+]=5CCC4)CC1` [Hexahydroquinoiizino-(4-methylpiperazin-1-yl}-rhodamine-6′-carboxyic acid] came in with an Em of 586 nm and an Ex of 559 nm.

In the case of `CN1CCN(c2ccc3c(-c4cc(C(=O)NCCOCCOCCOCCOCCOCCOCCCCCCCl)ccc4C(=O)[O-])c4ccc(=[N+]5CCN(C)CC5)cc-4oc3c2)CC1` [PBI-4453, N-(24-chloro-3,6,9,12,15,18-hexaoxatetracosyl)-3′,6′-bis(4-methylpiperazin-1-yl)-rhodamine-(5,6)carboxamide], in series [5], the “pH at or below which maximal fluorescence intensity is exhibited” value is given as not above 4.15. The “percent of maximal fluorescence” value in series [5] (at pH 7.53 or higher) is recorded as not above 5%. In addition, the pKa in [5] (from pH dependence of fluorescence) is approximately 5.84. Moreover, the “toxicity (cell viability)” value in the series on U2OS cells is “No toxicity”. In series [6], the emission maximum amounted to 571 nm and the excitation maximum is listed as 541 nm.

For the molecule `O=C(NCCOCCOCCCCCCCl)c1cccc(CNC(=O)c2ccc(C(=O)[O-])c(-c3c4ccc(=[N+]5CCN(CCCCS(=O)(=O)O)CC5)cc-4oc4cc(N5CCN(CCCCS(=O)(=O)O)CC5)ccc34)c2)c1` [PBI-4958], the cell permeability result in series [7] is given as “non-permeability”.

On to `O=C(NCCOCCOCCCCCCCl)c1ccc(CNC(=O)c2ccc(C(=O)[O-])c(-c3c4ccc(=[N+]5CCN(CCCCS(=O)(=O)O)CC5)cc-4oc4cc(N5CCN(CCCCS(=O)(=O)O)CC5)ccc34)c2)cc1` [PBI-4959, 4-((4-((2-(2-((6-chlorohexyl)oxy)ethoxy)ethyl)carbamoyl)benzyl))-3′,6′-bis(4-(4-sulfobutyl)piperazin-1-yl) rhodamine(5′,6′) carboxamide], for which the “detection of HaloTag-EDG1 internalization” value on U2-OS HaloTag-EDG1 cells [8] (with 1 uM S1P) was “ability to detect internalization of HaloTag-EDG1”. The “detection of background HaloTag-EDG1 internalization” value at U2-OS HaloTag-EDG1 cells [8] (without 1 uM S1P) was “ability to detect background internalization of HaloTag-EDG1”. In series [4], this molecule displayed an Em of 564 nm and an Ex of 532 nm. Also, the cell permeability entry in series [7] is given as “non-permeability”. In addition, the “toxicity (cell viability)” value with wild-type U2-OS cells is on record as “non-toxicity”.

For the molecule `O=C(CCOCCOCCOCCOCCNC(=O)c1ccc(C(=O)[O-])c(-c2c3ccc(=[N+]4CCN(CCCCS(=O)(=O)O)CC4)cc-3oc3cc(N4CCN(CCCCS(=O)(=O)O)CC4)ccc23)c1)NCc1cccc(C(=O)NCCOCCOCCCCCCCl)c1` [PBI-4994], the cell permeability entry in series [7] was “non-permeability”.

With `O=C(NCC1CCC(C(=O)NCCOCCOCCCCCCCl)CC1)c1ccc(C(=O)[O-])c(-c2c3ccc(=[N+]4CCN(CCCCS(=O)(=O)O)CC4)cc-3oc3cc(N4CCN(CCCCS(=O)(=O)O)CC4)ccc23)c1` (centres unmarked) [PBI-5004, 4-(((4-((2-(2-((6-chlorohexyl)oxy)ethoxy)ethyl)carbamoyl)cyclohexyl)methyl)) 3′,6′-bis(4-(4-sulfobutyl)piperazin-1-yl) rhodamine(5′,6′) carboxamide], the “detection of HaloTag-EDG1 internalization” value on U2-OS HaloTag-EDG1 cells [9] is listed as “ability to detect internalization of HaloTag-EDG1”. In series [4], this molecule came in with an Em of 560 nm and an Ex of 532 nm. Further, the “toxicity (cell viability)” value in the series on wild-type U2-OS cells is “non-toxicity”.
